Columns and labels:
[1] = Antiproliferative activity against human HREC cells assessed as cell growth inhibition incubated for 44 hrs by AlamarBlue reagent based fluorescence assay; type: functional
[2] = Cytotoxicity against human ARPE-19 cells assessed as cell growth inhibition incubated for 44 hrs by AlamarBlue reagent based fluorescence assay; type: toxicity
[3] = system: HREC; experiment: Antiangiogenic activity against human HREC cells assessed as inhibition of invitro tubule formation by measuring tubule length at 0.05 to 50 uM and measured after 8 hrs by Matrigel based bright-field microscopy; type: functional, cell-based; details: dose 0.05-50 µM

Question: Which GI50 [1] does the source give for `COc1ccc(CC2COc3cc(OC)c(OC)c(OC)c3C2=O)cc1OC(=O)[C@H](Cc1ccccc1)NC(=O)OC(C)(C)C` (some centres not stated) here?
Answer: The GI50 was 0.018 µM.

Question: What about the GI50 at 44 h [2] of the same compound?
Answer: The GI50 at 44 h was over 100 µM.

Question: What does the source list for `CC(C)=CCc1c(O)ccc2c1OC[C@H]1c3ccc4c(c3O[C@@H]21)CC(O)C(C)(C)O4` (some centres not stated)?
Answer: Activity [3]: Dose-Dependent Effect; GI50 [1]: 4.67 µM; GI50 at 44 h [2]: > 100 µM

Question: For `CC1(C)C=Cc2c(ccc3c2O[C@H]2c4ccc5c(c4OC[C@@H]32)C=CC(C)(C)O5)O1`, which GI50 [1] is on record?
Answer: Its GI50 is over 100 µM.

Question: What about the GI50 at 44 h [2] of the same compound?
Answer: The GI50 at 44 h was over 100 µM.

Question: For `CC(C)=CCc1cc2c(c(CC=C(C)C)c1O)OC[C@@H](c1ccc(O)cc1O)C2=O`, which Activity [3] is on record?
Answer: The Activity was “Dose-Dependent Effect”.

Question: And the GI50 [1]?
Answer: The GI50 was 5.85 µM.

Question: What about the GI50 at 44 h [2] of the same compound?
Answer: Its GI50 at 44 h is over 100 µM.

Question: Which results are given for `CC(C)=CCc1cc2c(c(CC=C(C)C)c1O)OC[C@@H](c1ccc(O)cc1O)C2`?
Answer: Activity [3]: Dose-Dependent Effect; GI50 [1]: 3.65 µM; GI50 at 44 h [2]: > 100 µM

Question: Which results are given for `CC(C)=CCc1c(O)ccc2c1O[C@H]1c3ccc(O)c(CC=C(C)C)c3OC[C@@H]21` [ERYBRAEDIN A]?
Answer: Activity [3]: Dose-Dependent Effect; GI50 [1]: 4.21 µM; GI50 at 44 h [2]: > 100 µM

Question: With `CC(C)=CCc1cc2c(cc1O)OC[C@H]1c3ccc(O)c(CC=C(C)C)c3O[C@@H]21` [ERYBRAEDIN C] as the compound, how does the Activity [3] read?
Answer: Its Activity is “Dose-Dependent Effect”.

Question: And the GI50 [1]?
Answer: The GI50 was 2.57 µM.

Question: And the GI50 at 44 h [2]?
Answer: The GI50 at 44 h was over 100 µM.

Question: For `CC1(C)C=Cc2c(ccc3c2O[C@H]2c4ccc(O)cc4OC[C@@H]32)O1` [PHASEOLIN], which Activity [3] is on record?
Answer: Its Activity is “Dose-Dependent Effect”.

Question: What about the GI50 [1] of the same compound?
Answer: The GI50 was 4.65 µM.

Question: What about the GI50 at 44 h [2] of the same compound?
Answer: Its GI50 at 44 h is over 100 µM.

Question: Which GI50 [1] does the source give for `CC(C)=CCc1c(O)ccc2c1O[C@H]1c3ccc(O)cc3OC[C@@H]21` [PHASEOLLIDIN] here?
Answer: The GI50 was over 100 µM.

Question: And the GI50 at 44 h [2]?
Answer: Its GI50 at 44 h is over 100 µM.

Question: For `COc1ccc2c(c1CC=C(C)C)O[C@H]1c3ccc(O)cc3OC[C@@H]21` [SANDWICENSIN], which Activity [3] is on record?
Answer: The Activity was “Dose-Dependent Effect”.

Question: And the GI50 [1]?
Answer: Its GI50 is 5.91 µM.

Question: What about the GI50 at 44 h [2] of the same compound?
Answer: Its GI50 at 44 h is over 100 µM.
